In general, IC50 refers to the point on the concentration scale where inhibition reaches its midpoint.

T1 sequence (Q93009 whole entry): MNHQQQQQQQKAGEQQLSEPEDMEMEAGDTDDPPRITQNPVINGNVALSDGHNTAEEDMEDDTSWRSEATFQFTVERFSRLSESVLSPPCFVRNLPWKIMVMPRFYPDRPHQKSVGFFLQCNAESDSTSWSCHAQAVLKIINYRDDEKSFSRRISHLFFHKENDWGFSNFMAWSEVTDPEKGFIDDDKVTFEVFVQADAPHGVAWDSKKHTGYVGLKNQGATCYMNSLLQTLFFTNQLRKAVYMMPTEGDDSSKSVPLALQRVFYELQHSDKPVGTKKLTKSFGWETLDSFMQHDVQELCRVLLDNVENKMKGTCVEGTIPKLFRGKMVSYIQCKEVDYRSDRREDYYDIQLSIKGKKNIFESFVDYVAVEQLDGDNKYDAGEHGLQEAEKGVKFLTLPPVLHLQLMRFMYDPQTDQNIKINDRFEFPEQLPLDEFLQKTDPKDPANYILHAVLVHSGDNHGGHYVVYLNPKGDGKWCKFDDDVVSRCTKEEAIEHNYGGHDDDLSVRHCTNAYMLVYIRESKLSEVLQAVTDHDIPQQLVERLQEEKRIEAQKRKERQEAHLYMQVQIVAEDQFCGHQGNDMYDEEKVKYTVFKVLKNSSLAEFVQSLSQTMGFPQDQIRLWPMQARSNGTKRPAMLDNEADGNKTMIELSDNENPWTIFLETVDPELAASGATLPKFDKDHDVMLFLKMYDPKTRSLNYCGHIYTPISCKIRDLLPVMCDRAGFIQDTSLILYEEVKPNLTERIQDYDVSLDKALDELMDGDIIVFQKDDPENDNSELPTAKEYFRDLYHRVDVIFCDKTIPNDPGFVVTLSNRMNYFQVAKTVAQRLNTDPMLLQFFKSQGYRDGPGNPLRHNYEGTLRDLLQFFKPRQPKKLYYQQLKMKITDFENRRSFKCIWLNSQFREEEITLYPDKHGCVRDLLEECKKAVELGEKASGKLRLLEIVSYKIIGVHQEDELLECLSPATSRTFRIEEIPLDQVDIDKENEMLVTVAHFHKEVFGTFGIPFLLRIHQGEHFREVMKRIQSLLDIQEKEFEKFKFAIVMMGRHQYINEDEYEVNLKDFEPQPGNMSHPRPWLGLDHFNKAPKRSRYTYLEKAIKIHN

The first assay has as its target T1, USP7 (Homo sapiens, UniProt Q93009).
T1 construct: The USP7 construct was PCR amplified and cloned into a pFLAG-CMV-6a vector (Sigma-Aldrich) with an N-terminal FLAG tag; made in house; host or cells: HEK293T
The assay is described as follows: USP7 biochemical IC50 assay (fluorescence polarisation, TAMRA labelled peptide linked to ubiquitin via an iso-peptide bond). As to conditions: 30 min pre-incubation of enzyme and compound, read after 2 hr incubation at room temperature, read-out: IC50 range. The method, boiled down:
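Fluorescence polarisation at 540 nm excitation/590 nm emission, read immediately and after 2 hr at room temperature, following addition of 50 nM TAMRA-labelled iso-peptide ubiquitin substrate.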
(In general: In fluorescence polarisation assays a small probe gives low polarisation when free and higher when bound to something large.)
With `COc1ccc(C#N)c(-c2cccc3c2CN(C#N)C3)c1` [Example 172, 4-(2-cyano-5-methoxyphenyl)isoindoline-2-carbonitrile], the IC50 is 1 to 10 µM. With `COc1ccc(C#N)c(-c2cccc3c2CN(C#N)C3)n1` [Example 173, 4-(3-cyano-6-methoxypyridin-2-yl)isoindoline-2-carbonitrile], the IC50 is 10 to 30 µM. `CN(C)S(=O)(=O)c1ccccc1-c1cccc2c1CN(C#N)C2` [Example 174, 2-(2-cyanoisoindolin-4-yl)-N,N-dimethylbenzenesulfonamide]: the IC50 is 1 to 10 µM. For the compound `CCNS(=O)(=O)c1ccccc1-c1cccc2c1CN(C#N)C2` [Example 175, 2-(2-cyanoisoindolin-4-yl)-N-ethylbenzenesulfonamide], the IC50 lay in the range of 1 to 10 µM.

`N#Cc1ccc(-c2cccc3c2CN(C#N)C3)c2c1CCC2=O` [Example 176, 4-(7-cyano-3-oxo-2,3-dihydro-1H-inden-4-yl)isoindoline-2-carbonitrile]: the IC50 lay in the range of 1 to 10 µM. On to `N#Cc1ccc(-c2cccc3c2CN(C#N)C3)c(C(F)(F)F)c1` [Example 177, 4-(4-cyano-2-(trifluoromethyl)phenyl)isoindoline-2-carbonitrile], for which the IC50 fell in the range of 1 to 10 µM. As for `N#CN1Cc2cccc(-c3ccccc3S(=O)(=O)N3CCC3)c2C1` [Example 178, 4-(2-(azetidin-1-ylsulfonyl)phenyl)isoindoline-2-carbonitrile], the IC50 lay within 1 to 10 µM. The same measure, in the same setting: then `N#CN1Cc2cccc(-c3ccccc3S(=O)(=O)NCCO)c2C1` [Example 179, 2-(2-cyanoisoindolin-4-yl)-N-(2-hydroxyethyl)benzenesulfonamide], with 1 to 10 µM; and `N#CN1Cc2cccc(-c3ccccc3C(=O)NCCn3cnccc3=O)c2C1` [Example 180, 2-(2-cyanoisoindolin-4-yl)-N-(2-(6-oxopyrimidin-1(6H)-yl)ethyl)benzamide], with 1 to 10 µM; and `N#Cc1cc(-n2ccnc2)ccc1-c1cccc2c1CN(C#N)C2` [Example 181, 4-(2-cyano-4-(1H-imidazol-1-yl)phenyl)isoindoline-2-carbonitrile], with 1 to 10 µM.

Take `COc1cccc(-c2nnc(-c3cnn(C)c3)c3c2CN(C#N)C3)c1` [Example 182, 1-(3-methoxyphenyl)-4-(1-methyl-1H-pyrazol-4-yl)-5,7-dihydro-6H-pyrrolo[3,4-d]pyridazine-6-carbonitrile]: the IC50 is 1 to 10 µM. Take `N#CN1Cc2ncnc(N3CCc4ccccc4C3)c2C1` [Example 183, 4-(3,4-dihydroisoquinolin-2(1H)-yl)-5,7-dihydro-6H-pyrrolo[3,4-c]pyrimidine-6-carbonitrile]: the IC50 lay within 1 to 10 µM.

With `Cc1ccccc1OC1CCN(c2ncnc3c2CN(C#N)C3)CC1` [Example 184, 4-(4-(o-tolyloxy)piperidin-1-yl)-5,7-dihydro-6H-pyrrolo[3,4-d]pyrimidine-6-carbonitrile], the IC50 was 1 to 10 µM. As to `COc1ccccc1OC1CCN(c2ncnc3c2CN(C#N)C3)CC1` [Example 186, 4-(4-(2-methoxyphenoxy)piperidin-1-yl)-5,7-dihydro-6H-pyrrolo[3,4-d]pyrimidine-6-carbonitrile], the IC50 was in the range of 1 to 10 µM. Take `CC(=O)Nc1nc2c(c(-c3ccc(F)cc3)n1)CN(C#N)C2` [Example 187, N-(6-cyano-4-(4-fluorophenyl)-6,7-dihydro-5H-pyrrolo[3,4-c]pyrimidin-2-yl)acetamide]: the IC50 was 1 to 10 µM. As for `CS(=O)(=O)CCNc1nc2c(c(-c3ccccc3)n1)CN(C#N)C2` [Example 188, 2-((2-(methylsulfonyl)ethyl)amino)-4-phenyl-5,7-dihydro-6H-pyrrolo[3,4-d]pyrimidine-6-carbonitrile], the IC50 was in the range of 1 to 10 µM.

Turning to `N#CN1Cc2nc(NC3CCOCC3)nc(-c3ccccc3)c2C1` [Example 189, 4-phenyl-2-((tetrahydro-2H-pyran-4-yl)amino)-5,7-dihydro-6H-pyrrolo[3,4-d]pyrimidine-6-carbonitrile], the IC50 fell in the range of 10 to 30 µM. Regarding `CN(CCO)c1nc2c(c(-c3ccccc3)n1)CN(C#N)C2` [Example 190, 2-((2-hydroxyethyl)(methyl)amino)-4-phenyl-5,7-dihydro-6H-pyrrolo[3,4-d]pyrimidine-6-carbonitrile], the 50% inhibitory concentration (IC50) was in the range of 1 to 10 µM. Take `CN1CCOC(CN(C)c2nc3c(c(-c4ccccc4)n2)CN(C#N)C3)C1` (stereo not shown) [Example 191, 2-(methyl((4-methylmorpholin-2-yl)methyl)amino)-4-phenyl-5,7-dihydro-6H-pyrrolo[3,4-d]pyrimidine-6-carbonitrile]: the IC50 fell in the range of 1 to 10 µM.

In the case of `CN1CCOC(CNc2nc3c(c(-c4cccnc4)n2)CN(C#N)C3)C1` (stereo not shown) [Example 192, 2-(((4-methylmorpholin-2-yl)methyl)amino)-4-(pyridin-3-yl)-5,7-dihydro-6H-pyrrolo[3,4-d]pyrimidine-6-carbonitrile], the IC50 was in the range of 1 to 10 µM. On to `CN1CCOC(CNc2nc3c(c(-c4cccc(F)c4)n2)CN(C#N)C3)C1` (stereo not shown) [Example 193, 4-(3-fluorophenyl)-2-(((4-methylmorpholin-2-yl)methyl)amino)-5,7-dihydro-6H-pyrrolo[3,4-d]pyrimidine-6-carbonitrile], for which the IC50 is 1 to 10 µM. Consider `CN1CCOC(CNc2nc3c(c(-c4ccc(F)cc4)n2)CN(C#N)C3)C1` (stereo not shown) [Example 194, 4-(4-fluorophenyl)-2-(((4-methylmorpholin-2-yl)methyl)amino)-5,7-dihydro-6H-pyrrolo[3,4-d]pyrimidine-6-carbonitrile], for which the IC50 lay within 1 to 10 µM. Take `CC(=O)Nc1cccc(-c2nc(NCC3CN(C)CCO3)nc3c2CN(C#N)C3)c1` (stereo not shown) [Example 195, N-(3-(6-cyano-2-(((4-methylmorpholin-2-yl)methyl)amino)-6,7-dihydro-5H-pyrrolo[3,4-d]pyrimidin-4-yl)phenyl)acetamide]: the IC50 was 1 to 10 µM. Regarding `CN1CCCC(CNc2nc3c(c(N4CCc5ccccc5C4)n2)CN(C#N)C3)C1` (stereo not shown) [Example 196, 4-(3,4-dihydroisoquinolin-2(1H)-yl)-2-(((1-methylpiperidin-3-yl)methyl)amino)-5,7-dihydro-6H-pyrrolo[3,4-d]pyrimidine-6-carbonitrile], the 50% inhibitory concentration (IC50) lay within 1 to 10 µM. The same measure, in the same setting: then `CN1CCOC(CNc2nc3c(c(N4CCc5ccccc5C4)n2)CN(C#N)C3)C1` (stereo not shown) [Example 197, 4-(3,4-dihydroisoquinolin-2(1H)-yl)-2-(((4-methylmorpholin-2-yl)methyl)amino)-5,7-dihydro-6H-pyrrolo[3,4-d]pyrimidine-6-carbonitrile], with 1 to 10 µM; and `Cn1nccc1CNc1nc2c(c(N3CCc4ccccc4C3)n1)CN(C#N)C2` [Example 198, 4-(3,4-dihydroisoquinolin-2(1H)-yl)-2-(((1-methyl-1H-pyrazol-5-yl)methyl)amino)-5,7-dihydro-6H-pyrrolo[3,4-d]pyrimidine-6-carbonitrile], with 1 to 10 µM; and `N#CN1Cc2nc(N[C@H]3CC[C@H](O)CC3)nc(N3CCc4ccccc4C3)c2C1` [Example 199], with 1 to 10 µM. For `N#CN1Cc2nc(NCC3CCOCC3)nc(N3CCc4ccccc4C3)c2C1` [Example 200, 4-(3,4-dihydroisoquinolin-2(1H)-yl)-2-(((tetrahydro-2H-pyran-4-yl)methyl)amino)-5,7-dihydro-6H-pyrrolo[3,4-d]pyrimidine-6-carbonitrile], the IC50 was in the range of 1 to 10 µM.

As for `Cn1cc(CNc2nc3c(c(N4CCc5ccccc5C4)n2)CN(C#N)C3)cn1` [Example 201, 4-(3,4-dihydroisoquinolin-2(1H)-yl)-2-(((1-methyl-1H-pyrazol-4-yl)methyl)amino)-5,7-dihydro-6H-pyrrolo[3,4-d]pyrimidine-6-carbonitrile], the IC50 fell in the range of 1 to 10 µM.

As for `N#CN1Cc2nc(NCCO)nc(N3CCc4ccccc4C3)c2C1` [Example 202, 4-(3,4-dihydroisoquinolin-2(1H)-yl)-2-((2-hydroxyethyl)amino)-5,7-dihydro-6H-pyrrolo[3,4-d]pyrimidine-6-carbonitrile], the concentration for half-maximal inhibition (IC50) was in the range of 1 to 10 µM. `CN1CCOC(CN(C)c2nc3c(c(N4CCc5ccccc5C4)n2)CN(C#N)C3)C1` (stereo not shown) [Example 203, 4-(3,4-dihydroisoquinolin-2(1H)-yl)-2-(methyl((4-methylmorpholin-2-yl)methyl)amino)-5,7-dihydro-6H-pyrrolo[3,4-d]pyrimidine-6-carbonitrile]: the IC50 was 1 to 10 µM. With `CNc1nc2c(c(N3CCC(Oc4ccccc4)CC3)n1)CN(C#N)C2` [Example 204, 2-(methylamino)-4-(4-phenoxypiperidin-1-yl)-5,7-dihydro-6H-pyrrolo[3,4-d]pyrimidine-6-carbonitrile], the IC50 was in the range of 1 to 10 µM. The same measure, in the same setting: then `CN(C)c1nc2c(c(N3CCC(Oc4ccccc4)CC3)n1)CN(C#N)C2` [Example 205, 2-(dimethylamino)-4-(4-phenoxypiperidin-1-yl)-5,7-dihydro-6H-pyrrolo[3,4-d]pyrimidine-6-carbonitrile], with 1 to 10 µM; and `N#CN1Cc2nc(NCCO)nc(N3CCC(Oc4ccccc4)CC3)c2C1` [Example 206, 2-((2-hydroxyethyl)amino)-4-(4-phenoxypiperidin-1-yl)-5,7-dihydro-6H-pyrrolo[3,4-d]pyrimidine-6-carbonitrile], with 1 to 10 µM; and `N#CN1Cc2nc(N)nc(N3CCC(Oc4ccccc4)CC3)c2C1` [Example 207, 2-amino-4-(4-phenoxypiperidin-1-yl)-5,7-dihydro-6H-pyrrolo[3,4-d]pyrimidine-6-carbonitrile], with 10 to 30 µM. In the case of `N#Cc1ccc(-c2nc(NCCO)nc3c2CN(C#N)C3)cc1` [Example 208, 4-(4-cyanophenyl)-2-((2-hydroxyethyl)amino)-5,7-dihydro-6H-pyrrolo[3,4-d]pyrimidine-6-carbonitrile], the IC50 was 10 to 30 µM.

The same assay, now with this note: IC50 range, 30 min pre-incubation of enzyme and compound, read after 2 hr incubation at room temperature.
`N#CN1Cc2ncnc(N3CCC(OCc4ccccc4)CC3)c2C1` [Example 185, 4-(4-(benzyloxy)piperidin-1-yl)-5,7-dihydro-6H-pyrrolo[3,4-d]pyriimidine-6-carbonitrile] registered an IC50 of 10 to 30 µM.

The values above are taken from US10683269B2 (MISSION THERAPEUTICS LIMITED, priority 2016, dated 2020).
